According to US9226509B2, “Phagodeterrent compounds of fungal origin” (Consiglio Nazionale Delle Ricerche, priority 2011, dated 2016):

Tested on: aphid Rhopalosiphum padi
Assay: Assay of the phagodeterrent activity of the R—OH alcohols (two-leaf choice test on wheat leaves in Petri dishes)
Format: in vivo
Conditions: for Bonferroni test: Treated media (mean number of aphids on treated leaves): wheat leaves, recorded each hour for 8 hours; for Bonferroni test: significance of treated vs control media: treated vs 5% methanol control leaf
Procedure: Treatment of wheat leaves consisted of immersion of the same for 10 seconds in aqueous suspensions of 5% methanol of the different alcohols, some of which were also tested at different concentrations.
As a control, the same number of leaves was prepared by immersion in an aqueous solution of 5% methanol only.
Assay of the Phaqodeterrent Activity of the R—OH Alcohols:
Petri dishes 9 cm in diameter were used, into each of which two wheat leaves were arranged in parallel and separated from one another by a distance of approximately 4 cm; one leaf was treated with the suspension in 5% methanol of alcohol at various concentrations, and the other control leaf was washed with a solution of 5% methanol. Aphids of the species Rhopalosiphum padi were introduced to the dishes (one per dish) at equal distance from the two leaves.
For each test, 10 aphids were used and the same test was repeated at least 12 times, for at least 120 aphids. The number of aphids present on the treated leaves and on the control leaves was recorded each hour for a total of 8 hours.
The raw data relating to the food choices of the aphids were analysed using the Generalised Linear Model (GLM) procedure for repeated measurements (SPSS release 15.01) and reported in Table 1. The differences of the media between the number of aphids per leaf at each […] and the number of aphids on corresponding control leaves were analysed and corrected by using the Bonferroni test for multiple comparisons.

[1] = alcohol 1.2 mM in 5% methanol aqueous suspension
[2] = alcohol 0.15 mM in 5% methanol aqueous suspension
[3] = alcohol 0.3 mM in 5% methanol aqueous suspension
[4] = alcohol 0.6 mM in 5% methanol aqueous suspension

Row | Molecule | Bonferroni test: Treated media (mean number of aphids on treated leaves) [1] | Bonferroni test: significance of treated vs control media (alcohol 1.2 mM) | Bonferroni test: Treated media (mean number of aphids on treated leaves) [2] | Bonferroni test: significance of treated vs control media (alcohol 0.15 mM) | Bonferroni test: Treated media (mean number of aphids on treated leaves) [3] | Bonferroni test: significance of treated vs control media (alcohol 0.3 mM) | Bonferroni test: Treated media (mean number of aphids on treated leaves) [4] | Bonferroni test: significance of treated vs control media (alcohol 0.6 mM) | Bonferroni test: Treated media (mean number of aphids on treated leaves) (alcohol 0.075 mM in 5% methanol aqueous suspension) | Bonferroni test: significance of treated vs control media (alcohol 0.075 mM)
1 | CCCCCCCC/C=C\CCCCCCCCO [Cis-9-octadecenol] | 2.281 ± 0.283 | ** (** P < 0.01) |  |  |  |  |  |  |  | 
2 | CCCCCCCCCCCCCCCCCCCCO [Eicosanol] | 3.042 ± 0.303 | ** (** P < 0.01) |  |  |  |  |  |  |  | 
3 | CCCCCCCCCCCCCCCCCO [Heptadecanol] | 1.094 ± 0.294 | ** (** P < 0.01) | 3.240 ± 0.410 | ** (** P < 0.01) | 3.063 ± 0.532 | ** (** P < 0.01) | 2.177 ± 0.298 | ** (** P < 0.01) |  | 
4 | CCCCCCCCCCCCCCCCO [Hexadecanol] | 1.308 ± 0.315 | ** (** P < 0.01) | 3.938 ± 0.429 | * (*P < 0.05) | 2.635 ± 0.323 | ** (** P < 0.01) | 2.281 ± 0.371 | ** (** P < 0.01) |  | 
5 | CCCCCCCCCCCCCCCCCCCO [Nonadecanol] | 3.427 ± 0.391 | * (*P < 0.05) |  |  |  |  |  |  |  | 
6 | CCCCCCCCCCCCCCCO [Pentadecanol] | 1.365 ± 0.301 | ** (** P < 0.01) | 3.406 ± 0.405 | ** (** P < 0.01) | 2.271 ± 0.283 | ** (** P < 0.01) | 2.385 ± 0.237 | ** (** P < 0.01) | 3.073 ± 0.335 | ** (** P < 0.01)
7 | CCCCCCCCCCCCCCO [Tetradecanol] | 1.938 ± 0.322 | ** (** P < 0.01) | 2.375 ± 0.370 | ** (** P < 0.01) | 3.271 ± 0.217 | ** (** P < 0.01) | 2.365 ± 0.264 | ** (** P < 0.01) |  | 
8 | Octadecenol | 2.469 ± 0.333 | ** (** P < 0.01) |  |  |  |  |  |  |  | 
